Converted amounts (≈) assume the structure as drawn.
Legend:
Assay type in all cases: physicochemical
[1] = solubility in water
Procedure: (§1) Inhalations for use as antiallergic agents include aqueous solution type aerosol inhalations, solution type aerosol inhalations and suspension type aerosol inhalations. The solubilities of pyrido[1,2-a]pyrimidine compounds in water are very low. For example, the solubility of 9-[(4-acetyl-3-hydroxy-2-n-propylphenoxy)methyl]-3-(1H-tetrazol-5-yl)-4H-pyrido[1,2-a]pyrimidin-4-one (hereinafter referred to as AS-35) in water is as low as 0.4 µg/ml. Accordingly, it would be impractical to prepare an aqueous solution type aerosol inhalation of AS-35, because this would require massive containers and devices. Moreover, in order to prepare a solution type aerosol inhalation of a pyrido[1,2-a]pyrimidine compound, it must be dissolved in a propellant or a mixture of a propellant and a commonly used solubilizing agent. […] Moreover, AS-35 is also insoluble in mixtures of such propellants and commonly used solubilizing agents. Thus, it is impossible to prepare a solution type aerosol inhalation of AS-35.

[2] = solubility in propellants and in propellant/solubilizing agent mixtures; conditions: Freon 11, 12, 13, 21, 22, 113, 114, 115, 123, 124, 132b, 133a, 134a, 141b, 142b, 152a, 225ca, 225cb, C318
Procedure: as §1

[3] = dispersibility and cohesiveness of fine particles in propellant with dispersant (naked eye); conditions: AS-148 in place of AS-35
Procedure: First of all, a series of experiments were carried out to evaluate the effectiveness of conventional dispersants. More specifically, various ester forms of non-ionic surfactants which are non-irritating to the site of application were tested by using an aerosol composition consisting of finely powdered AS-35 and a propellant comprising a 4:6 mixture of Freon 11 and Freon 12. Thus, the solubility of the dispersants in the propellant, the dispersibility of fine particles, the cohesiveness of fine particles, and variation in the amount delivered were examined.
Among the aforesaid test items, the solubility of a dispersant in the propellant was evaluated by placing 90 mg of the dispersant in a transparent container made of polyethylene terephthalate (hereinafter referred to as PET), attaching a valve thereto, injecting the propellant (i.e., a 4:6 mixture of Freon 11 and Freon 12) thereinto until the contents amounted to 12.0 g, shaking the container vigorously, and then observing the contents with the naked eye. […]

| SMILES | solubility [1] [µg/mL] | solubility in commonly used propellants [2] | results of Table 1 (dispersibility, cohesiveness with conventional dispersants) [3] |
| --- | --- | --- | --- |
| CCCc1c(OCc2cccn3c(=O)c(-c4nnn[nH]4)cnc23)ccc(C(C)=O)c1O [AS-35, 9-[(4-acetyl-3-hydroxy-2-n-propylphenoxy)methyl]-3-(1H-tetrazol-5-yl)-4H-pyrido[1,2-a]pyrimidin-4-one] | 0.4 (≈ 0.951 µM) | entirely insoluble |  |
| CCCc1c(OCc2cccn3c(=O)c(CC(=O)O)cnc23)ccc(C(C)=O)c1O [AS-148, [9-(4-acetyl-3-hydroxy-2-n-propylphenoxymethyl)-4-oxo-pyrido[1,2-a]pyrimidin-3-yl]-acetic acid] |  |  | exactly the same results as AS-35 |

Reference: patent EP0403301B1, “Aerosols of pyrido[1,2-a]pyrimidine compounds” (TOKYO TANABE COMPANY LIMITED, priority 1989, dated 1990)
